Entries after “also recorded” stand apart in the source; their conditions may differ. Read-outs that look alike come from different tables or passages of the source.
What was measured:
[1] = molecular target: T1, Human recombinant Top1 (Homo sapiens, UniProt P11387); experiment: Topoisomerase I-mediated DNA cleavage assay; format: biochemical; conditions: semiquantitative, relative to 1 μM camptothecin
T1 sequence (P11387 1-765): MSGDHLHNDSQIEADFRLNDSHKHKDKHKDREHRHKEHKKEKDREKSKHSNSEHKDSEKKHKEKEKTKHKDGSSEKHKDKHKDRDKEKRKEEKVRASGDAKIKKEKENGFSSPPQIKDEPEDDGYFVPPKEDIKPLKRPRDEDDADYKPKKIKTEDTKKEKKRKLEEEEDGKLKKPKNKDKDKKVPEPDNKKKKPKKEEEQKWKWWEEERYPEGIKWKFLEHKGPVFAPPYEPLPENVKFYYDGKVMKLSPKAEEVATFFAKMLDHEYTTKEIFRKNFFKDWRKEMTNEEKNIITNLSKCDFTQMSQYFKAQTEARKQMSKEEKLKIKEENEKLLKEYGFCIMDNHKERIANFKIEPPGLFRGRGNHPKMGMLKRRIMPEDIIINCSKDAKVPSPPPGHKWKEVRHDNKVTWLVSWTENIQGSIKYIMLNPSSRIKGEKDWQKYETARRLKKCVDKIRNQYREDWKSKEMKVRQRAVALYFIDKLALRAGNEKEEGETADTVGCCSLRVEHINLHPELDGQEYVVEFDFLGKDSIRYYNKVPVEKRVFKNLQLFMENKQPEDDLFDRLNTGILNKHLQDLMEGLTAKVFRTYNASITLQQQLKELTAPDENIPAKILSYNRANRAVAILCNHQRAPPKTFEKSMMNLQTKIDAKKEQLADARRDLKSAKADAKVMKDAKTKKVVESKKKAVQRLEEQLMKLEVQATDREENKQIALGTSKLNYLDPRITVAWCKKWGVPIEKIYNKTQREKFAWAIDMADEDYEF

[2] = molecular target: T2, Tdp1 (Homo sapiens, UniProt Q9NUW8); conditions: cited from earlier work
[3] = molecular target: T2, Tdp1; experiment: Surface plasmon resonance binding to amine coupled Tdp1; conditions: 33, 11, 3.7, 1.2 and 0.4 μM injected over amine coupled Tdp1
[4] = molecular target: T2, Tdp1; experiment: FRET assay, mechanism of inhibition of Tdp1; format: biochemical
[5] = system: 60 human cancer cell lines; conditions: read-out: MGM GI50, mean graph midpoint; cited from earlier work

T2 sequence (Q9NUW8 whole entry): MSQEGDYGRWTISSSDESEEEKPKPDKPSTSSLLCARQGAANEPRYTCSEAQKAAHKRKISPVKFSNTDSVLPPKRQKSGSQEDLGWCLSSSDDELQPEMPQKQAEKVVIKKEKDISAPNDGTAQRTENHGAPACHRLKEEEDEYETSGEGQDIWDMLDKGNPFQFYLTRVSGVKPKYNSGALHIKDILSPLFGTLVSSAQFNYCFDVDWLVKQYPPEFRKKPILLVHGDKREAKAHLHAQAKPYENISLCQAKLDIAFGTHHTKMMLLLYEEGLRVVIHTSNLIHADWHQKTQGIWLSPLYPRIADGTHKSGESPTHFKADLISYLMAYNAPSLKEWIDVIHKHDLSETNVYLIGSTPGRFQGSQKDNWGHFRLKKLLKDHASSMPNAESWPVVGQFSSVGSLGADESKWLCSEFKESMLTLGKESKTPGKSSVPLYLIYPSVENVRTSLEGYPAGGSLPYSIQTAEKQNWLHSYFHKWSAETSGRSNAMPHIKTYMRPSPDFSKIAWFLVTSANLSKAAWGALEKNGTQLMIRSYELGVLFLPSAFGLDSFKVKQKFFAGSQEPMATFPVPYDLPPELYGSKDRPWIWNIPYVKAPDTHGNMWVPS

With `Cl.NCCCCCCCCCCCCn1c2c(c3ccccc3c1=O)C(=O)c1ccccc1-2` [compound 79] the “Top1 (compound-induced DNA cleavage due to Top1 inhibition)” value [1] was 0/+.

In the case of `C[C@]12CC[C@H]3[C@@H](CCC4=CC(=O)CC[C@@]43C)[C@@H]1CC[C@@H]2C(=O)COS(=O)(=O)c1ccc(Br)cc1` [compound 7, 4-Pregnen-21-ol-3,20-dione-21-(4-bromobenzenesufonate)], the “Mechanism of inhibition of Tdp1” value [2] is listed as “competitive with the DNA substrate”.

In the case of `[O]=[V]([O-])([O-])[O-]` [vanadate], the “Tdp1 inhibition” value [2] is listed as “inhibition at millimolar concentrations”.

In the case of `Cl.NCCCn1c2c(c3ccccc3c1=O)C(=O)c1ccccc1-2` [compound 70], the “Binding to Tdp1 by surface plasmon resonance” value [3] is reported as “direct binding; also recorded: rapidly reaches equilibrium and then completely dissociates” and the “Mechanism of inhibition of Tdp1” value [4] is reported as “competitive inhibitor”.

For `O=C1c2ccccc2-c2c1c1ccccc1c(=O)n2CCCNCCCNCCCn1c2c(c3ccccc3c1=O)C(=O)c1ccccc1-2` [compound 145, Bis-1,3-{(5,6-dihydro-5,11-diketo-11H-indeno[1,2-c]isoquinoline)-6-propylamino}propane Bis(trifluoroacetate)], the GI50 [5] is given as 394 nM.
